Reference: BigSolDB 2.1

O=C(NC(Cc1cc(=O)[nH]c2ccccc12)C(=O)O)c1ccc(Cl)cc1 (stereo not given)
Conditions	solubility (mole fraction)
in PEG-400, 288.15 K	0.00236
in PEG-400, 293.15 K	0.0025
in PEG-400, 298.15 K	0.00264
in PEG-400, 303.15 K	0.00278
in PEG-400, 308.15 K	0.00292

solubility (mole fraction)
Conditions	288.15 K	293.15 K	298.15 K	303.15 K	308.15 K
in acetone	1.01e-05	1.2e-05	1.43e-05	1.7e-05	2e-05
in acetonitrile	8.25e-07	1.07e-06	1.38e-06	1.74e-06	2.2e-06
in ethanol	7.58e-05	8.61e-05	9.68e-05	0.000109	0.000122
in ethyl acetate	1.91e-06	2.21e-06	2.56e-06	2.94e-06	3.38e-06
in glycerin	2.97e-06	3.45e-06	4.02e-06	4.63e-06	5.35e-06
in isopropanol	3.82e-05	4.75e-05	5.83e-05	7.17e-05	8.79e-05
in methanol	7.56e-05	8.55e-05	9.59e-05	0.000107	0.00012
in n-butanol	5.47e-05	6.51e-05	7.73e-05	9.12e-05	0.000107
in n-propanol	6.1e-05	7.1e-05	8.24e-05	9.55e-05	0.000109
in propylene glycol	0.000204	0.000224	0.000246	0.000268	0.000291
in water	5.17e-07	6.74e-07	8.69e-07	1.12e-06	1.43e-06
